Test results from patent US9593157B2, “Chimeric polypeptides comprising G protein-coupled receptors and VHH antibodies” (VIB VZW, priority 2013, dated 2017).

Legend:
Type in all cases: binding
hMor1-34GS-Nb33 = biological target: T1, hMor1-34GS-Nb33 (Homo sapiens, UniProt P35372); assay: biochemical
T1 construct: HA signal peptide (N); made in house; host or cells: Sf9 insect cells (baculovirus), membranes

hMor1-34GS-Nb10 = biological target: T2, hMor1-34GS-Nb10 (Homo sapiens, UniProt P35372); assay: biochemical
T2 construct: HA signal peptide (N); made in house; host or cells: Sf9 insect cells (baculovirus), membranes

M2Δi3R-Nb9-8 = biological target: T3, M2Δi3R-Nb9-8 (Homo sapiens, UniProt P08172, A373T/DEL233-372/K374R/N2D/N3D/N6D/N9D); assay: Radioligand competition on M2Δi3R-Nb9-8 fusion (data not shown)
T3 construct: linker […]; His6 (C); made in house
T3 sequence (P08172 with tags, fused parts or gaps N2D/N3D/N6D/N9D/DEL233-372/A373T/K374R): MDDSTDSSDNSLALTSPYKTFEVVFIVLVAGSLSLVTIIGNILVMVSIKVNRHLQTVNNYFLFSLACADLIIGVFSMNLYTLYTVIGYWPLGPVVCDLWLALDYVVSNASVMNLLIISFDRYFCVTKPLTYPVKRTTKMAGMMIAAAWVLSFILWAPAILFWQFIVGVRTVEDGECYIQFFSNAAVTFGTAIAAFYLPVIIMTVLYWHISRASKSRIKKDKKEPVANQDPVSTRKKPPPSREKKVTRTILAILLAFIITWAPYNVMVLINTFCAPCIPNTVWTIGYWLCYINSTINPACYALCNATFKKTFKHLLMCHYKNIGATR

M2Δi3R-Nb9-1 = biological target: T4, M2Δi3R-Nb9-1 (Homo sapiens, UniProt P08172, A373T/DEL233-372/K374R/N2D/N3D/N6D/N9D); assay: Comparative radioligand competition assay ([3H]-N methyl scopolamine) on Sf9 membranes expressing M2Δi3R-Nb9-1
T4 construct: linker […]; made in house; host or cells: Sf9 insect cells (baculovirus), membranes
T4 sequence (P08172 with tags, fused parts or gaps N2D/N3D/N6D/N9D/DEL233-372/A373T/K374R): T3 sequence (P08172 with tags, fused parts or gaps N2D/N3D/N6D/N9D/DEL233-372/A373T/K374R)
Description: (§1) Radioligand competition binding experiments were performed on Sf9 insect cell membranes expressing either M2Δi3R (no Single-domain antibody fused) or M2Δi3R-Nb9-1. […] After filtration, membranes retained on the filter plates were washed with ice-cold wash buffer (20 mM Tris-HCl pH7.4), and filters were dried for 1 hour at 50° C.

M2Δi3R = biological target: T5, M2Δi3R (Homo sapiens, UniProt P08172, A373T/DEL233-372/K374R/N2D/N3D/N6D/N9D); assay: Comparative radioligand competition assay ([3H]-N methyl scopolamine) on Sf9 membranes expressing non-fused M2Δi3R; conditions: [3H]-NMS 0.5 nM
T5 construct: made in house; host or cells: Sf9 insect cells (baculovirus), membranes
T5 sequence (P08172 with tags, fused parts or gaps N2D/N3D/N6D/N9D/DEL233-372/A373T/K374R): T3 sequence (P08172 with tags, fused parts or gaps N2D/N3D/N6D/N9D/DEL233-372/A373T/K374R)
Description: as §1

Mor1 = Mor1 (Homo sapiens, UniProt P35372); assay: Affinity of Single-domain antibody for Mor1
β2AR = β2AR (Homo sapiens, UniProt P07550); assay: Affinity of Single-domain antibody for β2AR
[1] = biological target: T6, non-fused β2AR365N in presence of exogenously added Nb80 (Homo sapiens, UniProt P07550, E27Q/G16R/N187E); assay: Radioligand competition assay on non-fused β2AR365N in complex with exogenously added Nb80; conditions: epinephrine bound active state; 5 μM Nb80 in 250 μl
T6 construct: made in house; host or cells: Sf9 insect cells (baculovirus), membranes; purified Nb80 added
Description: To compare the efficiency of fused versus non-fused Nb80 to stabilize the active state of β2AR, the pharmacological properties of the β2AR365N-Nb80 fusion was compared to the non-fused β2AR365N in complex with exogenously added Nb80. […] The β2AR365N-Nb69 fusion and β2AR365N in complex with exogenously added Nb69 were assayed in parallel as controls.
Radioligand competition binding experiments were performed on Sf9 insect cell membranes (5 μg total protein) expressing either β2AR365N (no Single-domain antibody fused), β2AR365N-Nb80 or β2AR365N-Nb69. […] Data represent the mean±SEM of each data point performed in triplicate.

## Cc1cc(O)cc(C)c1C[C@H](N)C(=O)N[C@H](CCCNC(=N)N)C(=O)N[C@H]1Cc2ccccc2CN(CCC(N)=O)C1=O [KGOP01]
hMor1-34GS-Nb33
  IC50: 3.8 nM
  IC50Nb33/IC50Nb10 (fold preference): 20
hMor1-34GS-Nb10
  IC50: 76.7 nM

## C[N+](C)(C)CCOC(N)=O [carbachol]
M2Δi3R-Nb9-8
  affinity of M2Δi3R-Nb9-8 fusion compared to non-fused M2Δi3R: higher affinity

## C[N+](C)(C)CC#CCN1CCCC1=O [oxotremorine M]
M2Δi3R-Nb9-1
  IC50 ratio IC50m2Δi3R/IC50highM2Δi3R-Nb9-1: 316
M2Δi3R-Nb9-1; [3H]-NMS 0.5 nM, Sf9 membranes, IC50high
  IC50: 310 nM
M2Δi3R
  IC50: 98.4 µM

B1: Nb10: Single-domain antibody specific for a chemokine GPCR, SEQ ID NO:20 (protein)
VHH: QVQLQESGGGLVQPGGSLRLSCAASGSFRSIVSMAWYRQAPGKQRELVASSNSGGSTNYADSVKGRFTISRDNAKNTVYLQMNSLKPEDTAVYWCNVQNRLPGFDAFSGRSIAETYWGQGTQVTVSS
modifications: Nb10
Mor1
  affinity for Mor1: no detectable affinity

B2: Nb69: mock Single-domain antibody specific for Muscarinic3 receptor, SEQ ID NO:15 (protein)
VHH: QVQLQESGGGLVQAGGSLRLSCTASGLTLSNYAMGWFRQAPGKEREFVAADTWNGNTYHQDSVKGRFTISRDNAKNTVYLQMNYLKPEDTAVYYCAARGSRRSAYYSSSDYTYRGQGTQVTVSS
modifications: Nb69
β2AR
  affinity for β2AR: no detectable affinity

B3: Nb80: β2AR specific Single-domain antibody stabilizing the active state, SEQ ID NO:13 (protein)
VHH: QVQLQESGGGLVQAGGSLRLSCAASGSIFSINTMGWYRQAPGKQRELVAAIHSGGSTNYANSVKGRFTISRDNAANTVYLQMNSLKPEDTAVYYCNVKDYGAVLYEYDYWGQGTQVTVSS
modifications: Nb80
[1]
  molar excess of exogenously added Nb80 over β2AR required to constrain the receptor with same efficiency as the fusion: 12500 fold
